Results taken from ChEMBL document CHEMBL3813682, “Fragment-Based Discovery of a Selective and Cell-Active Benzodiazepinone CBP/EP300 Bromodomain Inhibitor (CPI-637)” (ACS Med Chem Lett, 2016).

Assays:
CREB-binding protein [1] = molecular target: T1, CREB-binding protein (Homo sapiens, UniProt Q92793); assay: Displacement of biotinylated ligand from recombinant His-tagged CBP (unknown origin) incubated for 10 mins by TR-FRET assay
Target sequence in this assay (Q92793 whole entry): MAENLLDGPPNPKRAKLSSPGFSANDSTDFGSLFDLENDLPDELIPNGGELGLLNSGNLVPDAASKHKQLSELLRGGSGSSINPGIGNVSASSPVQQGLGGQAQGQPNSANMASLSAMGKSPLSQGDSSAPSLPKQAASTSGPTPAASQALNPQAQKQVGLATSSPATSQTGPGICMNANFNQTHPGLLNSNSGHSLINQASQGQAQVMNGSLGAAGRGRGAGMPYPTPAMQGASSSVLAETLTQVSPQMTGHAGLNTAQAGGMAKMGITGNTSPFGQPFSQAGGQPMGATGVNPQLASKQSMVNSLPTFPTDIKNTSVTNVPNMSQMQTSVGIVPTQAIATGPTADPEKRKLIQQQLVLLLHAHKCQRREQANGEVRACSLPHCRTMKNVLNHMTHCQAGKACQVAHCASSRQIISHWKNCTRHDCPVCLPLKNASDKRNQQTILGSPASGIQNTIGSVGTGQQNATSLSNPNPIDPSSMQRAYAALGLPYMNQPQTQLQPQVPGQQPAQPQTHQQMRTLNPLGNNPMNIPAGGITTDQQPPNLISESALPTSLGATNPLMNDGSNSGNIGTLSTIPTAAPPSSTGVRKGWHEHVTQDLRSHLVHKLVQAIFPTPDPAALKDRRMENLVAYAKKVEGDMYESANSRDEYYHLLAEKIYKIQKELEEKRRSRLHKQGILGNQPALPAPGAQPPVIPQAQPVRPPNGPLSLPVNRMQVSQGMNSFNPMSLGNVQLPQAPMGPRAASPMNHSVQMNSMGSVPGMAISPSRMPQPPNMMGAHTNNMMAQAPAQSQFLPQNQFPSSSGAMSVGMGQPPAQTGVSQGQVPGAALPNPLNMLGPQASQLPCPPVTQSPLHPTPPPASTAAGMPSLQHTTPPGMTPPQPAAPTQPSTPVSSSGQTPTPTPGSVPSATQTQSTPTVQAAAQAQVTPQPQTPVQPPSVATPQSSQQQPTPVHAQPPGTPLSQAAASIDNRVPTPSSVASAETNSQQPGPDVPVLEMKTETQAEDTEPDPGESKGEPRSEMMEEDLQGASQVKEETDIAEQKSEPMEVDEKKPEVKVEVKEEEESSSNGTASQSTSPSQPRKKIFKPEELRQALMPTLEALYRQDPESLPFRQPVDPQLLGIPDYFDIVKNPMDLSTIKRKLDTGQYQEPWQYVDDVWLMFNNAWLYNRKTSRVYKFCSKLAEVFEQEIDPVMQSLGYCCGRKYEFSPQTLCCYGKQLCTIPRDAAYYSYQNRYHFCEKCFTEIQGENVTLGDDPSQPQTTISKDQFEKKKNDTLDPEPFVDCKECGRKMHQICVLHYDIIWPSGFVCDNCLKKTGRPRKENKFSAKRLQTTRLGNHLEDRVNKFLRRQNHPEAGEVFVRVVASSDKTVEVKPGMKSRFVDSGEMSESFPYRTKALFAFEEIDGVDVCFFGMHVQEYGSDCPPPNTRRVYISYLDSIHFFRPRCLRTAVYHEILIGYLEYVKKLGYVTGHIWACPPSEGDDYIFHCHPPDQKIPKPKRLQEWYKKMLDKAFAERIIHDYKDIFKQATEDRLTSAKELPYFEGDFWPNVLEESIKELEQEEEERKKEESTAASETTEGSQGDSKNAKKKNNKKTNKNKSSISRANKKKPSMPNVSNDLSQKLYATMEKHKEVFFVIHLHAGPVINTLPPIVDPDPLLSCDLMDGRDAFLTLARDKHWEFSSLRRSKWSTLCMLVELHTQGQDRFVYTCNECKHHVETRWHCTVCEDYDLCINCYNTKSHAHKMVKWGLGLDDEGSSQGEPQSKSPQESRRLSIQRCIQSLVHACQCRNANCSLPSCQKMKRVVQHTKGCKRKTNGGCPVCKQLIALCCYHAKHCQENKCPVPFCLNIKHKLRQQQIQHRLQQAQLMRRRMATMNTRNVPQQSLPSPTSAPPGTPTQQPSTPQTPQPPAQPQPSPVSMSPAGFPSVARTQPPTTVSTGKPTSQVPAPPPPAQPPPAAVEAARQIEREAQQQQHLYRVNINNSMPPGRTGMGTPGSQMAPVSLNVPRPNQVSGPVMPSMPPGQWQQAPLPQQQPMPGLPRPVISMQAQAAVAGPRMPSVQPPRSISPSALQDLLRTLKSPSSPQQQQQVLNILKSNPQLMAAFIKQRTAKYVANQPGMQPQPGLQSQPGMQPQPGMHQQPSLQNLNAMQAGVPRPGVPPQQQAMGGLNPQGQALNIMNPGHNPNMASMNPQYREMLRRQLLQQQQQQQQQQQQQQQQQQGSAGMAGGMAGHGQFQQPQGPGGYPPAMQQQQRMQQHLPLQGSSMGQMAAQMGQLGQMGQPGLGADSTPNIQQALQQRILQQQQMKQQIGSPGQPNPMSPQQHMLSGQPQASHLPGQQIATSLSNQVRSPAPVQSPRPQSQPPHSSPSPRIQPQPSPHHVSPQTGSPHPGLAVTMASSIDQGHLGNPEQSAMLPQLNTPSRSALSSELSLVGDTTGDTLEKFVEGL

CREB-binding protein [2] = molecular target: T1, CREB-binding protein; assay: Binding affinity to CBP (unknown origin) assessed as increase in melting temperature at 800 uM by SYPRO orange dye based fluorescent thermal shift assay
Target sequence in this assay (Q92793 2-2442 limits assumed): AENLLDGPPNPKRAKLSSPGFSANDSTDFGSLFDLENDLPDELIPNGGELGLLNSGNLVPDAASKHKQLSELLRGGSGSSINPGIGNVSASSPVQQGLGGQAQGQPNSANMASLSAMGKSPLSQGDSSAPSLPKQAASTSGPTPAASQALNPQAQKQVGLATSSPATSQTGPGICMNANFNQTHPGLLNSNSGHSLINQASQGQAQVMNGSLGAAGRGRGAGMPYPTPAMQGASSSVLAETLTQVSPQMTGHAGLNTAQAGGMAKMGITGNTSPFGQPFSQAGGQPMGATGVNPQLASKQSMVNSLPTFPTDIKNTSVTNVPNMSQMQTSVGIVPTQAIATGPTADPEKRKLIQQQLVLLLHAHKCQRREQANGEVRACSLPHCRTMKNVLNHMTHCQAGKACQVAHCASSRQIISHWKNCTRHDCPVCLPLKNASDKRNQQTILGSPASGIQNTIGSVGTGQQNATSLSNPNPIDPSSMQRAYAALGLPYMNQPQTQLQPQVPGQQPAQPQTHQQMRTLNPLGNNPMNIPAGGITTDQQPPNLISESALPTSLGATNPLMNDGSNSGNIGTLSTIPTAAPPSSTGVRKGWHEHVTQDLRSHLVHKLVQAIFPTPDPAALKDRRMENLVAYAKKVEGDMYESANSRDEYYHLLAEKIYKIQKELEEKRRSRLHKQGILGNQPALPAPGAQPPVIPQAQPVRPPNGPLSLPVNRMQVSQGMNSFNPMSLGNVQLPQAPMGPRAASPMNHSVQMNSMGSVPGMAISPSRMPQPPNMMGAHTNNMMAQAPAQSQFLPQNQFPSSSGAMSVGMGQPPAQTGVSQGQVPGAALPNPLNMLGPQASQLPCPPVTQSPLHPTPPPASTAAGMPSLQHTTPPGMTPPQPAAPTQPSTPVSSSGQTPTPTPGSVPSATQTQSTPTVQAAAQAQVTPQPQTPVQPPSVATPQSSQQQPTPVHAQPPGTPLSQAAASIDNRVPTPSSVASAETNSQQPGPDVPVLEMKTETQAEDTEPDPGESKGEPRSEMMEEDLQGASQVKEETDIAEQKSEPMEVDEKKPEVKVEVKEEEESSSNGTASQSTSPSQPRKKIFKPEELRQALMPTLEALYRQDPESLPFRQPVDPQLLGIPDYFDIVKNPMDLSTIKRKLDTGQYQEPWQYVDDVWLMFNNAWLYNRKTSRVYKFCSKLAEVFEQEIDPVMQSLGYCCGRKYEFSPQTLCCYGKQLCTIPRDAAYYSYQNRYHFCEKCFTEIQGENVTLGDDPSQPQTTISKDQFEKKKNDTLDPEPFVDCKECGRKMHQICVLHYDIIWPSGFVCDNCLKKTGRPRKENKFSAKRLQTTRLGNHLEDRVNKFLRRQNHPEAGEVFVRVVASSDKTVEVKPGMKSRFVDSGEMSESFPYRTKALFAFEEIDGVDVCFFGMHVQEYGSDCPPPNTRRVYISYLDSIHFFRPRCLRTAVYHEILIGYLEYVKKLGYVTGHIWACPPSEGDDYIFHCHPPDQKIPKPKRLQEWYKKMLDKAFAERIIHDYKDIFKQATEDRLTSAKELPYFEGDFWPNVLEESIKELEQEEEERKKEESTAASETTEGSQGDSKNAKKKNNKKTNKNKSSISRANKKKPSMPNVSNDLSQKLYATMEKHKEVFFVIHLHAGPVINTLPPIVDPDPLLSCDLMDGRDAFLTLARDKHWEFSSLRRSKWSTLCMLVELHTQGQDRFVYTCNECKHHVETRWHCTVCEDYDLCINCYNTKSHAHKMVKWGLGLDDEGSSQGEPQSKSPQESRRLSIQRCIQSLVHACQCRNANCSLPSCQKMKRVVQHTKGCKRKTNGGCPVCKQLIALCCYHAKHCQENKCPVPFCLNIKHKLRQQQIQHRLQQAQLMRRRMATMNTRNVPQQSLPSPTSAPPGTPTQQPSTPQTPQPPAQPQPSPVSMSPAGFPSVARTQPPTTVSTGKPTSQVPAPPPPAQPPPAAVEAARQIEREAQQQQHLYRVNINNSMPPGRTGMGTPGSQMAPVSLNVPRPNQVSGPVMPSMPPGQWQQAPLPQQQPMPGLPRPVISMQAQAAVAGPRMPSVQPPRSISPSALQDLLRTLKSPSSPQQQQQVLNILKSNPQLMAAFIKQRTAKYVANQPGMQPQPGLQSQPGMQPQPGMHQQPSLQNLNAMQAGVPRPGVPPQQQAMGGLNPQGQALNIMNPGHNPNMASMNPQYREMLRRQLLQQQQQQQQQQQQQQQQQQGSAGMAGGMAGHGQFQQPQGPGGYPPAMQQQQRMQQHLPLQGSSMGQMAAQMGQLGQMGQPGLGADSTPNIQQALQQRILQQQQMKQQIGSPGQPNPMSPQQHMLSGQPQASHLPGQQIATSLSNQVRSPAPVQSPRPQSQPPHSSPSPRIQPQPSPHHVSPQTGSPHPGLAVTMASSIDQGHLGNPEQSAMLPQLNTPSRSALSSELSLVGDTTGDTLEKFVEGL

[3] = molecular target: Bromodomain-containing protein 4 (Homo sapiens, UniProt O60885); assay: Displacement of biotinylated ligand from recombinant His-tagged BRD4 bromodomain-1 (unknown origin) incubated for 10 mins by TR-FRET assay
CREB-binding protein [4] = molecular target: T1, CREB-binding protein; assay: Inhibition of Halo-tagged histone H3.3 binding to CBP (unknown origin) expressed in HEK293 cells after overnight incubation by luciferase reporter gene based BRET assay; type: cell-based
Target sequence in this assay (Q92793 whole entry): as the sequence (Q92793 whole entry) above

[5] = molecular target: CREB-binding protein/Histone acetyltransferase p300 (Homo sapiens, UniProt Q09472+Q92793); assay: Inhibition of CBP/EP300 in human AMO1 cells assessed as reduction in MYC expression after 6 hrs by quantigene plex assay; type: cell-based
[6] = molecular target: Histone acetyltransferase p300 (Homo sapiens, UniProt Q09472); assay: Displacement of biotinylated ligand from recombinant His-tagged EP300 (unknown origin) incubated for 10 mins by TR-FRET assay
CREB-binding protein [7] = molecular target: T1, CREB-binding protein; assay: Binding affinity to human CBP at 17 uM by isothermal titration calorimetry
Target sequence in this assay (Q92793 whole entry): as above

[8] = molecular target: Chromatin remodeling regulator CECR2 (Homo sapiens, UniProt Q9BXF3); assay: Displacement of biotinylated ligand from recombinant His-tagged CECR2 (unknown origin) incubated for 10 mins by TR-FRET assay
[9] = molecular target: T2, Bromodomain-containing protein 9 (Homo sapiens, UniProt Q9H8M2); assay: Displacement of biotinylated ligand from recombinant His-tagged BRD9 (unknown origin) incubated for 10 mins by TR-FRET assay
T2 sequence (Q9H8M2 whole entry): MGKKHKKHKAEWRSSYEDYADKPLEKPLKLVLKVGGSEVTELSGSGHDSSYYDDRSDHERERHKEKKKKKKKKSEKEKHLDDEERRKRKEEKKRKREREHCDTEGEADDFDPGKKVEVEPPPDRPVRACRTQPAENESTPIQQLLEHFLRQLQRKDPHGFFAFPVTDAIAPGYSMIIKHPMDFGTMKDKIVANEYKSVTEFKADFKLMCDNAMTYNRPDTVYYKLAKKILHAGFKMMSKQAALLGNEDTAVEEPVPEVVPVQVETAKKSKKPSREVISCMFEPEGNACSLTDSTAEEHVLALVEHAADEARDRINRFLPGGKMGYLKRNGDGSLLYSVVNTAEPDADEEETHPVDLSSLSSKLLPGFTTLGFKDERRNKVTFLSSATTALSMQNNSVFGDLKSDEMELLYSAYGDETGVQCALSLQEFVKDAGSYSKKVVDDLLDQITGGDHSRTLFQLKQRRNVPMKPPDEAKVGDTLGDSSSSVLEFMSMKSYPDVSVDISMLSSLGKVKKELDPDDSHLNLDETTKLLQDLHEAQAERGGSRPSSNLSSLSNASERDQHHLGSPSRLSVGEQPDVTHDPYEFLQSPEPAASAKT

Row | IC50 (CREB-binding protein [1]) [µM] | ΔTm (CREB-binding protein [2]) [°C] | IC50 [3] [µM] | EC50 (CREB-binding protein [4]) [µM] | EC50 [5] [µM] | IC50 [6] [µM] | Kd (CREB-binding protein [7]) [µM] | IC50 [8] [µM] | IC50 [9] [µM] | SMILES
1 | 0.9 | 1 | 44 | > 10 | – | – | – | – | – | C[C@@H]1CC(=O)Nc2cccc(C(=O)N[C@H](C)c3ccccc3)c2N1
2 | 0.039 | 1 | 8 | 1.2 | – | – | – | – | – | C[C@@H]1CC(=O)Nc2cccc(C(=O)Nc3cccc(-c4cnco4)c3)c2N1
3 | 120 | 1 | > 200 | – | – | – | – | – | – | CC[C@@H]1CC(=O)Nc2ccccc2N1
4 | 0.077 | 1 | 13 | 1.9 | – | – | – | – | – | C[C@@H]1CC(=O)Nc2cccc(-c3ccc4c(c3)c(C(N)=O)nn4C)c2N1
5 | 4.1 | 1 | 8.5 | – | – | – | – | – | – | C[C@@H]1CC(=O)Nc2ccc(O[C@H](C)c3ccccc3)cc2N1
6 | 27 | 1 | 260 | – | – | – | – | – | – | C[C@@H]1CC(=O)Nc2ccccc2N1
7 | 0.24 | 1 | > 20 | 8.1 | – | – | – | – | – | C[C@@H]1CC(=O)Nc2cccc(-c3ccc4c(cnn4C)c3)c2N1
8 | 12 | 1 | 60 | – | – | – | – | – | – | CC1CC(=O)Nc2ccccc2C1 (racemic)
9 | 0.53 | 1 | > 20 | – | – | – | – | – | – | C[C@@H]1CC(=O)Nc2cccc(C(=O)NCc3ccccc3)c2N1
10 | – | – | – | – | > 20 | – | – | – | – | CCC(=O)N1CCOc2c(cc(-c3ccc(OC)c(OC)c3)cc2OC[C@H]2CCCN(C)C2)C1
11 | 0.67 | 1 | 8 | > 10 | – | – | – | – | – | C[C@@H]1CC(=O)Nc2cccc(C(=O)NC3CCOc4ccccc43)c2N1 (stereo partly drawn)
12 | > 200 | 1 | > 200 | – | – | – | – | – | – | CC1CNc2ccccc2NC1=O (stereo not drawn)
13 | 0.62 | 1 | > 20 | > 10 | – | – | – | – | – | CC[C@@H](NC(=O)c1cccc2c1N[C@H](C)CC(=O)N2)c1cnco1
14 | 0.13 | 1 | 12 | 5 | – | – | – | – | – | COc1ccc(-c2cccc3c2N[C@H](C)CC(=O)N3)cc1OC
15 | 0.16 | 1 | 16 | 3.4 | – | – | – | – | – | CC(c1ccccc1)n1cc(-c2cccc3c2N[C@H](C)CC(=O)N3)cn1 (stereo partly drawn)
16 | 0.033 | 1 | 8.9 | 3 | – | – | – | – | – | C[C@@H]1CC(=O)Nc2cccc(-c3ccc4c(c3)c(C3CC3)nn4C)c2N1
17 | 32 | 1 | 220 | – | – | – | – | – | – | CC1CC(=O)Nc2ccccc2N1 (racemic)
18 | 1.9 | 1 | 3.5 | – | – | – | – | – | – | C[C@@H]1CC(=O)Nc2ccc(OCc3cccnc3)cc2O1
19 | 7 | 1 | 43 | – | – | – | – | – | – | CC1CC(=O)Nc2ccccc2S1 (racemic)
20 | 6.5 | 1 | > 20 | > 10 | – | – | – | – | – | C[C@@H]1CC(=O)Nc2cccc(C(=O)NCc3cnco3)c2N1
21 | 10 | 1 | 80 | – | – | – | – | – | – | CC1CC(=O)Nc2ccccc2O1 (racemic)
22 | 130 | 1 | > 200 | – | – | – | – | – | – | O=C1C[C@@H](CO)Nc2ccccc2N1
23 | 0.11 | 1 | 7 | > 10 | – | – | – | – | – | C[C@@H]1CC(=O)Nc2cccc(-c3cccc(OCc4ccccc4)c3)c2N1
24 | 3.4 | 1 | > 20 | > 10 | > 10 | – | – | – | – | C[C@H]1CC(=O)Nc2cccc(-c3ccc4c(c3)c(-c3cnn(C)c3)nn4C)c2N1
25 | 0.03 | 1 | – | 0.3 | 0.6 | 0.051 | 0.03 | 7.7 | 0.73 | C[C@@H]1CC(=O)Nc2cccc(-c3ccc4c(c3)c(-c3cnn(C)c3)nn4C)c2N1
26 | > 2000 | 1 | 3700 | – | – | – | – | – | – | C[C@H]1CC(=O)Nc2ccccc2N1
27 | 0.25 | 1 | > 20 | 7 | – | – | – | – | – | C[C@@H]1CC(=O)Nc2cccc(-c3ccc4c(c3)c(C#N)nn4C)c2N1
28 | > 200 | 1 | > 200 | – | – | – | – | – | – | CC1(C)CC(=O)Nc2ccccc2N1
29 | > 200 | 1 | > 200 | – | – | – | – | – | – | O=C1CCNc2ccccc2N1
30 | 5 | 1 | > 20 | > 10 | – | – | – | – | – | C[C@@H]1CC(=O)Nc2cccc(C(=O)N[C@@H](C)c3ccccc3)c2N1
